Measured values published in publication PMC6282620, “Structural and biochemical characterization of Plasmodium falciparum Hsp70‐x reveals functional versatility of its C‐terminal EEVN motif” (Proteins, 2018).
Like-named read-outs stand apart in the source and are kept apart here. Where no end group is shown, it is not given here.

Legend:
PfHsp70‐x [1] = molecular target: T1, PfHsp70‐x (Plasmodium falciparum, UniProt K7NTP5); assay: SPR nucleotide (ATP) binding assay; conditions: SPR steady state, PfHsp70‐x immobilized as ligand, ATP 1.25-20 nM, 25°C, PBS-Tween pH 7.4; mean ± SD of three independent assays; read-out: K D (ATP analyte)
Description: (§1) The nucleotide binding assay was conducted at 25°C using a BioRad ProteOn XPR36 surface plasmon resonance (SPR) as previously described.22 The assay buffer was constituted of filter sterilized and degassed PBS‐Tween [([…], 1.46 mM KH2PO4, 137 mM NaCl, 3 mM KCl, 0.005% [v/v] Tween 20 and 20 mM EDTA; pH 7.4)]. PfHsp70‐x (1 μg mL^−1) and its truncated version, PfHsp70‐xT (1 μg mL^−1) were immobilized onto respective ProteOn HTE sensor chips as ligands. At these concentrations, we achieved 190 response units (RU) for PfHsp70‐x and 195 RU for PfHsp70‐xT per immobilization surface. Varying concentrations (1.25 nM, 2.50 nM, 5 nM 10 nM and 20 nM) of the analyte (ATP) were injected at a flow rate of 100 μL min^−1 in each horizontal channel and association and dissociation was allowed to occur and monitored for 10 minutes. Steady state equilibrium constant data was processed and analyzed using ProteOn Manager software version 3.1.0.6.

PfHsp70‐xT [2] = molecular target: T2, PfHsp70‐xT (Plasmodium falciparum, UniProt K7NTP5); assay: SPR nucleotide (ATP) binding assay; conditions: SPR steady state, PfHsp70‐xT immobilized as ligand, ATP 1.25-20 nM, 25°C, PBS-Tween pH 7.4; mean ± SD of three independent assays; read-out: K D (ATP analyte)
Description: as §1

PfHsp70‐x [3] = molecular target: T1, PfHsp70‐x; assay: SPR peptide substrate binding kinetics; conditions: mean ± SD; for Kd: K D, peptide 1.25-20 nM, 25°C, PBS-Tween; for Kd / ka association rate constant: SPR, PfHsp70‐x ligand; for koff: read-out: kd dissociation rate constant, SPR, PfHsp70‐x ligand
Description: (§2) Association of PfHsp70‐x/PfHsp70‐xT with synthetic peptides that represent typical Hsp70 substrates26 was investigated using surface plasmon resonance (SPR) analysis as previously described.22, 24 Briefly, PfHsp70‐x and PfHsp70‐xT were immobilized onto respective ProteOn GLC sensor chips as ligands. PfHsp70‐x, PfHsp70‐xT (as ligands) were immobilized at concentrations of 0.5 and 1 μg mL^−1. At these concentrations we achieved 190 response units (RU) for PfHsp70‐x, and 193 RU for PfHsp70‐xT per immobilization surface. The assay was conducted at 25°C. Filter sterilized and degassed PBS‐Tween was used as the running buffer. As analytes, aliquots of peptides, representing typical Hsp70 substrates (NRLLTG, NRNNTG, ALLLMYRR, ANNNMYRR, GFRVVLMYRF, GFRNNNMYRF) were prepared at final concentration of 1.25, 2.50, 5, 10, and 20 nM and were injected at 50 μL min^−1 in each horizontal channel. Association was allowed for 2 minutes, dissociation was monitored for 10 minutes. The assay was repeated in the presence of nucleotides 2 mM ATP/ADP. The final data were determined by substracting the baseline RU (buffer containing ATP/ADP without analyte peptide). The association rate constant, dissociation rate constant and equilibrium constant data were analyzed using ProteOn Manager software version 3.1.0.6. by concatenating the responses of the analyte at variable concentrations.

PfHsp70‐xT [4] = molecular target: T2, PfHsp70‐xT; assay: SPR peptide substrate binding kinetics; set-up: ka association rate constant: scale not given here; conditions: mean ± SD; for Kd: K D, peptide 1.25-20 nM, 25°C, PBS-Tween; for Kd / ka association rate constant: SPR, PfHsp70‐xT ligand; for koff: read-out: kd dissociation rate constant, SPR, PfHsp70‐xT ligand
Description: as §2

PfHsp70‐x [5] = molecular target: T1, PfHsp70‐x; assay: SPR analysis of association with hHop; type: binding; conditions: 5 mM ATP versus no nucleotide / ADP
Description: The direct association between PfHsp70‐x and hHop was further explored using SPR analysis. The assay was conducted at 25°C using filter sterilized and degassed PBS‐Tween running buffer [(8 mM Na2HPO4, 1.46 mM KH2PO4, 137 mM NaCl, 3 mM KCl, 0.005% [v/v] Tween 20 and 20 mM EDTA; pH 7.4)] as previously described.22, 24 The recombinant PfHsp70‐x /PfHsp70‐xT (1 μg mL^−1) and BSA (as control) were immobilized onto respective ProteOn GLC sensor chips as ligands. As analyte, the recombinant hHop at varying concentrations (125, 250, 500, 1 000, and 2 000 nM) was passed over the immobilized proteins. The analytes were injected at flow rate of 50 μL min^−1 and association and dissociation occurred in a period of 10 minutes. The assay was then repeated in the presence of 5 mM ADP/ATP. The association rate constant, dissociation rate constant, and equilibrium constant data were processed and analyzed using ProteOn Manager software version 3.1.0.6 involving concatenating the responses of the analyte at variable concentrations.

PfHsp70‐x [6] = molecular target: T1, PfHsp70‐x; assay: Slot blot assay of direct association with hHop; type: binding
Description: (§3) Recombinant forms of hHop, control (bovine serum albumin), PfHsp70‐x (positive control) were immobilized onto the nitrocellulose membrane using Bio‐Dot SF apparatus as previously described 22. The proteins were immobilized at final amounts of 2, 4, and 8 μg each respectively per lane. The membrane was blocked with 5% (w/v) fat‐free milk in TBST (50 mM Tris‐HCl pH 7.5, 150 mM NaCl, 0.1% [v/v] Tween 20) and overlaid with either PfHsp70‐x/PfHsp70‐xT (10 μg mL^−1) in the absence and presence of 5 mM ATP/ADP and incubated overnight at 4°C, followed by three washes with TBST for 15 minutes. The nucleotide concentrations were maintained in the subsequent steps of the protocol. Protein was detected by Western blot technique using rabbit raised α‐PfHsp70‐x [1:2000] (Genscript, USA) as primary antibodies and goat raised α‐rabbit IgG secondary HRP‐conjugated antibody [1:4000] (Sigma–Aldrich, USA). Imaging of the protein bands was conducted using the ECL kit as per manufacturer's instructions. The images were captured using ChemiDoc imaging system (Bio‐Rad, USA).

PfHsp70‐xT [7] = molecular target: T2, PfHsp70‐xT; assay: Slot blot assay of direct association with hHop; type: binding; conditions: hHop immobilized 2, 4, 8 μg, overlaid with PfHsp70‐xT 10 μg/mL
Description: as §3

PfHsp70‐x [8] = molecular target: T1, PfHsp70‐x; assay: ELISA of direct association with hHop; type: binding; conditions: Hop analyte 0.137-300 nM
Description: The direct association of hHop with PfHsp70‐x was further confirmed using an enzyme linked immunosorbent assay (ELISA) as previously described27 with minor modifications. Briefly, recombinant PfHsp70‐x/PfHsp70‐xT proteins and control BSA (5 μg/mL) were added to wells overnight in 50 mM NaHCO3, pH 9.3 at 4°C. The wells were washed at least three times with TBST, between each subsequent step. After blocking with 1% BSA in TBST, recombinant PfHop protein (analyte) was added in serial dilutions (0.137–300 nM) in the presence or absence of nucleotides (5 mM ATP/ADP) for 2 hours at 25°C. Then the wells were incubated with α‐PfHop primary antibody for 1 hour. Next, primary antibody was incubated with HRP conjugated goat raised anti‐rabbit IgG for 1 hour. HRP development was assayed with TMB substrate solution (Bio‐Scientific, USA) and monitored at 370 nm using a SpectraMax M3 microplate reader (Molecular Devices, USA) every 5 minutes for 30 minutes.

T2 sequence (K7NTP5 entry or part of it): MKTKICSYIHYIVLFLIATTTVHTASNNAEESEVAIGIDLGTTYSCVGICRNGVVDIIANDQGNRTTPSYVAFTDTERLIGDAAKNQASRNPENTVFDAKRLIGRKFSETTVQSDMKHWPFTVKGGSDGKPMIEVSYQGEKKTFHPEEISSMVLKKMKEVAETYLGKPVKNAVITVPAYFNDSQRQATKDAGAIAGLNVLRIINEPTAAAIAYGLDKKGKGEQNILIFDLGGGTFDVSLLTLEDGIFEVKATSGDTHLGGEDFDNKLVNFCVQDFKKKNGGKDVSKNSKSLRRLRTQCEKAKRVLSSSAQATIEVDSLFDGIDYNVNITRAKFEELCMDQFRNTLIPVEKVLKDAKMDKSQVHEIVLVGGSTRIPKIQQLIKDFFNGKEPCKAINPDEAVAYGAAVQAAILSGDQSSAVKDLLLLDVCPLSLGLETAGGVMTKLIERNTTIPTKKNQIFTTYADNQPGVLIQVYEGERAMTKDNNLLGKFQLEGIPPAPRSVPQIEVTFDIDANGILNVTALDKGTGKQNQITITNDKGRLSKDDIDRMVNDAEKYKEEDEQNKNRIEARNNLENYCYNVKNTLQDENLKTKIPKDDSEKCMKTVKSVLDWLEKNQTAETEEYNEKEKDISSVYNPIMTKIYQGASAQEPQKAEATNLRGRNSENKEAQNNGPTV
T1 sequence (K7NTP5 entry or part of it): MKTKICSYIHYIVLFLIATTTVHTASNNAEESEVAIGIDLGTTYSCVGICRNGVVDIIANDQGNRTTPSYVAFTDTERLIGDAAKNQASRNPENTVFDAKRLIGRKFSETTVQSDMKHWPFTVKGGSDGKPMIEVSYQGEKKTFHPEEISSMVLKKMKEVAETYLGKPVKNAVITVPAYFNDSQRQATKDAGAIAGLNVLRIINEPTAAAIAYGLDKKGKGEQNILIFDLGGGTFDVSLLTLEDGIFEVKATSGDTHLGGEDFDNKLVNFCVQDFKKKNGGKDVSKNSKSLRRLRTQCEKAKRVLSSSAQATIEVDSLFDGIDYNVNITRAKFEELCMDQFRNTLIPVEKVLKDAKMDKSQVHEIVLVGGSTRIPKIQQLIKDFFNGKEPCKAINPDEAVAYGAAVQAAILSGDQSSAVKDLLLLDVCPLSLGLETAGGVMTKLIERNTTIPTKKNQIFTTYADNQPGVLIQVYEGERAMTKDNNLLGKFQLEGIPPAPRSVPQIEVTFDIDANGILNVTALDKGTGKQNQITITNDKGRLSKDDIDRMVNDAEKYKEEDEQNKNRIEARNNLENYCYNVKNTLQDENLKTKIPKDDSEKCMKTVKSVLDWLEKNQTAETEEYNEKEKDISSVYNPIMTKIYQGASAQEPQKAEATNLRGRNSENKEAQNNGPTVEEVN

Nc1ncnc2c1ncn2[C@@H]1O[C@H](COP(=O)(O)OP(=O)(O)OP(=O)(O)O)[C@@H](O)[C@H]1O [ATP]
Kd (PfHsp70‐x [1]): 110 nM | Kd (PfHsp70‐xT [2]): 11200 nM

ANNNMYRR [ANNNMYRR]
Kd (PfHsp70‐x [3]; no nucleotide (NN)): 2.21 nM

GFTNNNMYRF [GFTNNNMYRF]
Kd (PfHsp70‐x [3]; 2 mM ADP): 6.25 nM | Kd (PfHsp70‐x [3]; no nucleotide (NN)): 2.4 nM | Kd (PfHsp70‐xT [4]; 2 mM ADP): 1.4 nM | Kd (PfHsp70‐xT [4]; no nucleotide (NN)): 2.2 nM

GFTVVLMYRF [GFTVVLMYRF, reference compound]
koff (PfHsp70‐x [3]; + ADP): 1e-05 s⁻¹ | koff (PfHsp70‐x [3]; + ATP): 0.000117 s⁻¹ | koff (PfHsp70‐x [3]; no nucleotide): 1.03e-05 s⁻¹

NRLLTG [NRLLTG, reference compound]
ka association rate constant (PfHsp70‐x [3]; + ADP): 1.62 (± 0. 22) 1/ Ms | ka association rate constant (PfHsp70‐x [3]; + ATP): 1.21 (± 0.23) 1/ Ms | koff (PfHsp70‐x [3]; + ADP): 1.01e-05 s⁻¹ | koff (PfHsp70‐x [3]; + ATP): 1.01e-05 s⁻¹ | koff (PfHsp70‐x [3]; no nucleotide): 9.97e-06 s⁻¹ | ka association rate constant (PfHsp70‐xT [4]; + ADP): 6.0 (± 0.51) 1/ Ms | ka association rate constant (PfHsp70‐xT [4]; no nucleotide): 3.15 (± 0.31) 1/ Ms | koff (PfHsp70‐xT [4]; + ADP): 1e-05 s⁻¹ | koff (PfHsp70‐xT [4]; + ATP): 0.000161 s⁻¹ | koff (PfHsp70‐xT [4]; no nucleotide): 8.67e-06 s⁻¹

NRNNTG [NRNNTG]
Kd (PfHsp70‐x [3]; 2 mM ADP): 4.31 nM | Kd (PfHsp70‐x [3]; no nucleotide (NN)): 6.91 nM | ka association rate constant (PfHsp70‐x [3]; + ADP): 2.55 (± 0.23) 1/ Ms | ka association rate constant (PfHsp70‐x [3]; + ATP): 7.33 (± 0.22) 1/ Ms | ka association rate constant (PfHsp70‐x [3]; no nucleotide): 2.43 (± 0.45) 1/ Ms | koff (PfHsp70‐x [3]; + ADP): 1.03e-07 s⁻¹ | koff (PfHsp70‐x [3]; + ATP): 1.01e-06 s⁻¹ | koff (PfHsp70‐x [3]; no nucleotide): 9.49e-07 s⁻¹ | Kd (PfHsp70‐xT [4]; 2 mM ADP): 1.69 nM | Kd (PfHsp70‐xT [4]; no nucleotide (NN)): 7.92 nM | ka association rate constant (PfHsp70‐xT [4]; + ADP): 5.96 (±0.1) 1/ Ms | ka association rate constant (PfHsp70‐xT [4]; + ATP): 9.37 (±0.17) 1/ Ms | ka association rate constant (PfHsp70‐xT [4]; no nucleotide): 3.52 (± 0.18) 1/ Ms | koff (PfHsp70‐xT [4]; + ADP): 1.01e-08 s⁻¹ | koff (PfHsp70‐xT [4]; + ATP): 1.01e-05 s⁻¹ | koff (PfHsp70‐xT [4]; no nucleotide): 2.79e-08 s⁻¹

hHop: recombinant N-terminally His-tagged human Hsp70‐Hsp90 organizing protein
inhibition of the PfHsp70‐x-hHop association by ATP (PfHsp70‐x [5]): at least tenfold | association with hHop in slot blot (PfHsp70‐x [6]; hHop immobilized 2, 4, 8 μg, overlaid with PfHsp70‐x 10 μg/mL, no nucleotide): occur in a concentration‐dependent manner | association with hHop in slot blot (PfHsp70‐x [6]; overlaid with PfHsp70‐x, 5 mM ADP): appeared to enhance the association | association with hHop in slot blot (PfHsp70‐x [6]; overlaid with PfHsp70‐x, 5 mM ATP): abrogated the interaction | association with hHop in slot blot (PfHsp70‐xT [7]): not observed | association with hHop in ELISA (PfHsp70‐x [8]; PfHsp70‐x immobilized 5 μg/mL, 2 h, 25°C, no nucleotide): occurs in a concentration dependent form | association with hHop in ELISA (PfHsp70‐x [8]; PfHsp70‐x immobilized, 5 mM ADP): occurs in a concentration dependent form | association with hHop in ELISA (PfHsp70‐x [8]; PfHsp70‐x immobilized, 5 mM ATP): inhibited the association
